# Test results as given in patent publication US10407425B2, “Indazole inhibitors of the Wnt signal pathway and therapeutic uses thereof” (Samumed, LLC, priority 2012, dated 2019).
# System: Wnt activity
# Test: Wnt activity reporter assay (SP5 promoter firefly luciferase in SW480 cells)
# Assay type: cell-based
# Conditions: Homo sapiens; SW480 cells bearing SP5 promoter luciferase reporter; 24 h after compound addition; read-out: Wnt inhibition
# Source text: The above synthesized compounds were screened using the assay procedure for Wnt activity described below.
# Reporter cell lines can be generated by stably transducing cells of cancer cell lines (e.g., colon cancer) with a lentiviral construct that include a wnt-responsive promoter driving expression of the firefly luciferase gene.
# Lentiviral constructs can be made in which the SP5 promoter, a promoter having eight TCF/LEF binding sites derived from the SP5 promoter, is linked upstream of the firefly luciferase gene. The lentiviral constructs can also include a hygromycin resistance gene as a selectable marker. The SP5 promoter construct can be used to transduce SW480 cells, a colon cancer cell line having a mutated APC gene that generates a truncated APC protein, leading to de-regulated accumulation of β-catenin.
# Cultured SW480 cells bearing a reporter construct can be distributed at approximately 10,000 cells per well into 384 well multiwell plates. Compounds from a small molecule compound library can then be added to the wells in half-log dilutions using a three micromolar top concentration. A series of control wells for each cell type receive only buffer and compound solvent. Twenty-four hours after the addition of compound, reporter activity for luciferases can be assayed, for example, by addition of the BrightGlo luminescence reagent (Promega) and the Victor3 plate reader (Perkin Elmer). Readings can be normalized to DMSO only treated cells, and normalized activities can then be used in the IC50 calculations.
row,Compound,IC50 [nM]
1,"CN1CCN(c2cncc3[nH]c(-c4n[nH]c5ccc(-c6cncc(NC(=O)C7CC7)c6)cc45)nc23)CC1 [Compound 260, N-(5-(3-(7-(4-Methylpiperazin-1-yl)-3H-imidazo[4,5-c]pyridin-2-yl)-1H-indazol-5-yl)pyridin-3-yl)cyclopropanecarboxamide]",315
2,"CC(C)(C)C(=O)Nc1cncc(-c2ccc3[nH]nc(-c4nc5c(-c6ccc(F)cc6)cncc5[nH]4)c3c2)c1 [Compound 102, N-(5-(3-(7-(4-Fluorophenyl)-3H-imidazo[4,5-c]pyridin-2-yl)-1H-indazol-5-yl)pyridin-3-yl)pivalamide]",4
3,"CN1CCN(c2cncc3[nH]c(-c4n[nH]c5ccc(-c6cncc(N)c6)cc45)nc23)CC1 [Compound 247, 5-(3-(7-(4-Methylpiperazin-1-yl)-3H-imidazo[4,5-c]pyridin-2-yl)-1H-indazol-5-yl)pyridin-3-amine]",2
4,"O=C(Nc1cncc(-c2ccc3[nH]nc(-c4nc5c(-c6ccncc6)cncc5[nH]4)c3c2)c1)C1CCCC1 [Compound 170, N-(5-(3-(7-(Pyridin-4-yl)-3H-imidazo[4,5-c]pyridin-2-yl)-1H-indazol-5-yl)pyridin-3-yl)cyclopentanecarboxamide]",7000
5,"Fc1ccc(-c2cncc3[nH]c(-c4n[nH]c5ccc(-c6cncc(CN7CCCC7)c6)cc45)nc23)cc1 [Compound 107, 7-(4-Fluorophenyl)-2-(5-(5-(pyrrolidin-1-ylmethyl)pyridin-3-yl)-1H-indazol-3-yl)-3H-imidazo[4,5-c]pyridine]",52
6,"c1cncc(-c2ccc3[nH]nc(-c4nc5c(-c6cccnc6)cncc5[nH]4)c3c2)c1 [Compound 136, 7-(Pyridin-3-yl)-2-(5-(pyridin-3-yl)-1H-indazol-3-yl)-3H-imidazo[4,5-c]pyridine]",35
7,"CC(C)CC(=O)Nc1cncc(-c2ccc3[nH]nc(-c4nc5c(-c6cc(F)cc(CNS(C)(=O)=O)c6)cncc5[nH]4)c3c2)c1 [Compound 373, N-(5-(3-(7-(3-Fluoro-5-(methylsulfonamidomethyl)phenyl)-3H-imidazo[4,5-c]pyridin-2-yl)-1H-indazol-5-yl)pyridin-3-yl)-3-methylbutanamide]",5
8,"CN(C)c1cncc(-c2ccc3[nH]nc(-c4nc5c(-c6ccsc6)cncc5[nH]4)c3c2)c1 [Compound 295, N,N-Dimethyl-5-(3-(7-(thiophen-3-yl)-3H-imidazo[4,5-c]pyridin-2-yl)-1H-indazol-5-yl)pyridin-3-amine]",3
9,"Cc1ccncc1-c1ccc2[nH]nc(-c3nc4c(-c5ccsc5)cncc4[nH]3)c2c1 [Compound 293, 2-(5-(4-Methylpyridin-3-yl)-1H-indazol-3-yl)-7-(thiophen-3-yl)-3H-imidazo[4,5-c]pyridine]",191
10,"CC(C)(C)CC(=O)Nc1cncc(-c2ccc3[nH]nc(-c4nc5c(-c6ccsc6)cncc5[nH]4)c3c2)c1 [Compound 304, 3,3-Dimethyl-N-(5-(3-(7-(thiophen-3-yl)-3H-imidazo[4,5-c]pyridin-2-yl)-1H-indazol-5-yl)pyridin-3-yl)butanamide]",3
11,"CC(C)C(=O)Nc1cncc(-c2ccc3[nH]nc(-c4nc5c(N6CCN(C)CC6)cncc5[nH]4)c3c2)c1 [Compound 2, N-(5-(3-(7-(4-methylpiperazin-1-yl)-3H-imidazo[4,5-c]pyridin-2-yl)-1H-indazol-5-yl)pyridin-3-yl)isobutyramide]",125 to 146
12,"CC(C)C(=O)Nc1cncc(-c2ccc3[nH]nc(-c4nc5ccncc5[nH]4)c3c2)c1 [Compound 9, N-(5-(3-(3H-imidazo[4,5-c]pyridin-2-yl)-1H-indazol-5-yl)pyridin-3-yl)isobutyramide]",400 to 630
13,"CN(C)Cc1cncc(-c2ccc3[nH]nc(-c4nc5c(-c6ccccn6)cncc5[nH]4)c3c2)c1 [Compound 186, N,N-Dimethyl-1-(5-(3-(7-(pyridin-2-yl)-3H-imidazo[4,5-c]pyridin-2-yl)-1H-indazol-5-yl)pyridin-3-yl)methanamine]",38
14,"CC(C)(C)CC(=O)Nc1cncc(-c2ccc3[nH]nc(-c4nc5ccncc5[nH]4)c3c2)c1 [Compound 280, N-(5-(3-(3H-Imidazo[4,5-c]pyridin-2-yl)-1H-indazol-5-yl)pyridin-3-yl)-3,3-dimethylbutanamide]",21
15,"CCC(=O)Nc1cncc(-c2ccc3[nH]nc(-c4nc5c(-c6cncc(F)c6)cncc5[nH]4)c3c2)c1 [Compound 20, N-(5-(3-(7-(5-fluoropyridin-3-yl)-3H-imidazo[4,5-c]pyridin-2-yl)-1H-indazol-5-yl)pyridin-3-yl)propionamide]",1.4 to 1.8
16,"O=C(Cc1ccccc1)Nc1cncc(-c2ccc3[nH]nc(-c4nc5c(-c6cccc(F)c6)cncc5[nH]4)c3c2)c1 [Compound 86, N-(5-(3-(7-(3-Fluorophenyl)-3H-imidazo[4,5-c]pyridin-2-yl)-1H-indazol-5-yl)pyridin-3-yl)-2-phenylacetamide]",23

row,Compound,IC50 [nM]
1,"c1cncc(-c2ccc3[nH]nc(-c4nc5c(-c6ccoc6)cncc5[nH]4)c3c2)c1 [Compound 315, 7-(Furan-3-yl)-2-(5-(pyridin-3-yl)-1H-indazol-3-yl)-3H-imidazo[4,5-c]pyridine]",22
2,"CN(C)Cc1cncc(-c2ccc3[nH]nc(-c4nc5c(N6CCN(C)CC6)cncc5[nH]4)c3c2)c1 [Compound 3, N,N-dimethyl-1-(5-(3-(7-(4-methylpiperazin-1-yl)-3H-imidazo[4,5-c]pyridin-2-yl)-1H-indazol-5-yl)pyridin-3-yl)methanamine]",83 to 179
3,"Nc1cncc(-c2ccc3[nH]nc(-c4nc5ccncc5[nH]4)c3c2)c1 [Compound 268, 5-(3-(3H-Imidazo[4,5-c]pyridin-2-yl)-1H-indazol-5-yl)pyridin-3-amine]",> 10000
4,"c1cncc(-c2ccc3[nH]nc(-c4nc5c(N6CCOCC6)cncc5[nH]4)c3c2)c1 [Compound 6, 4-(2-(5-(pyridin-3-yl)-1H-indazol-3-yl)-3H-imidazo[4,5-c]pyridin-7-yl)morpholine]",10 to 13
5,"Cc1ccncc1-c1ccc2[nH]nc(-c3nc4c(N5CCCCC5)cncc4[nH]3)c2c1 [Compound 202, 2-(5-(4-Methylpyridin-3-yl)-1H-indazol-3-yl)-7-(piperidin-1-yl)-3H-imidazo[4,5-c]pyridine]",535
6,"O=C(Nc1cncc(-c2ccc3[nH]nc(-c4nc5c(-c6cccc(F)c6)cncc5[nH]4)c3c2)c1)C1CCCCC1 [Compound 94, N-(5-(3-(7-(3-Fluorophenyl)-3H-imidazo[4,5-c]pyridin-2-yl)-1H-indazol-5-yl)pyridin-3-yl)cyclohexanecarboxamide]",11
7,"CN(C)Cc1cncc(-c2ccc3[nH]nc(-c4nc5c(-c6cccc(F)c6)cncc5[nH]4)c3c2)c1 [Compound 89, 1-(5-(3-(7-(3-Fluorophenyl)-3H-imidazo[4,5-c]pyridin-2-yl)-1H-indazol-5-yl)pyridin-3-yl)-N,N-dimethylmethanamine]",> 10000
8,"CC(C)CC(=O)Nc1cncc(-c2ccc3[nH]nc(-c4nc5c(-c6cccs6)cncc5[nH]4)c3c2)c1 [Compound 397, 3-Methyl-N-(5-(3-(7-(thiophen-2-yl)-3H-imidazo[4,5-c]pyridin-2-yl)-1H-indazol-5-yl)pyridin-3-yl)butanamide]",0.1
9,"c1cc(-c2cncc3[nH]c(-c4n[nH]c5ccc(-c6cncc(CNCC7CCCC7)c6)cc45)nc23)cs1 [Compound 311, 1-Cyclopentyl-N-((5-(3-(7-(thiophen-3-yl)-3H-imidazo[4,5-c]pyridin-2-yl)-1H-indazol-5-yl)pyridin-3-yl)methyl)methanamine]",58
10,"c1ccc(-c2cncc3[nH]c(-c4n[nH]c5ccc(-c6cccnc6)cc45)nc23)nc1 [Compound 177, 7-(Pyridin-2-yl)-2-(5-(pyridin-3-yl)-1H-indazol-3-yl)-3H-imidazo[4,5-c]pyridine]",2
11,"O=C(Cc1ccccc1)Nc1cncc(-c2ccc3[nH]nc(-c4nc5c(-c6ccoc6)cncc5[nH]4)c3c2)c1 [Compound 321, N-(5-(3-(7-(Furan-3-yl)-3H-imidazo[4,5-c]pyridin-2-yl)-1H-indazol-5-yl)pyridin-3-yl)-2-phenylacetamide]",33
12,"CC(C)CC(=O)Nc1cncc(-c2ccc3[nH]nc(-c4nc5c(-c6ccccc6F)cncc5[nH]4)c3c2)c1 [Compound 11, N-(5-(3-(7-(2-fluorophenyl)-3H-imidazo[4,5-c]pyridin-2-yl)-1H-indazol-5-yl)pyridin-3-yl)-3-methylbutanamide]",3.5 to 65
13,"O=C(Cc1ccccc1)Nc1cncc(-c2ccc3[nH]nc(-c4nc5ccncc5[nH]4)c3c2)c1 [Compound 274, N-(5-(3-(3H-Imidazo[4,5-c]pyridin-2-yl)-1H-indazol-5-yl)pyridin-3-yl)-2-phenylacetamide]",> 10000
14,"CN1CCN(c2cncc3[nH]c(-c4n[nH]c5ccc(-c6cncc(NC(=O)Cc7ccccc7)c6)cc45)nc23)CC1 [Compound 252, N-(5-(3-(7-(4-Methylpiperazin-1-yl)-3H-imidazo[4,5-c]pyridin-2-yl)-1H-indazol-5-yl)pyridin-3-yl)-2-phenylacetamide]",650
15,"CN1CCN(c2cncc3[nH]c(-c4n[nH]c5ccc(-c6cncc(NC(=O)CC(C)(C)C)c6)cc45)nc23)CC1 [Compound 257, 3,3-Dimethyl-N-(5-(3-(7-(4-methylpiperazin-1-yl)-3H-imidazo[4,5-c]pyridin-2-yl)-1H-indazol-5-yl)pyridin-3-yl)butanamide]",95
